Assay results reported in ChEMBL document CHEMBL4610028, “Variegatic acid from the edible mushroom Tylopilus ballouii inhibits TNF-α production and PKCβ1 activity in leukemia cells” (Bioorg Med Chem Lett, 2020).

Legend:
[1] = target: T1, Protein kinase C beta type (Rattus norvegicus, UniProt P68403); assay: Inhibition of PKCbeta in rat RBL2H3 cells assessed as inhibition of ionomycin-stimulated TNFalpha release preincubated for 15 mins followed by ionomycin stimulation and measured after 3 hrs by ELISA; assay type: cell-based, RBL-2H3
T1 sequence (P68403 whole entry): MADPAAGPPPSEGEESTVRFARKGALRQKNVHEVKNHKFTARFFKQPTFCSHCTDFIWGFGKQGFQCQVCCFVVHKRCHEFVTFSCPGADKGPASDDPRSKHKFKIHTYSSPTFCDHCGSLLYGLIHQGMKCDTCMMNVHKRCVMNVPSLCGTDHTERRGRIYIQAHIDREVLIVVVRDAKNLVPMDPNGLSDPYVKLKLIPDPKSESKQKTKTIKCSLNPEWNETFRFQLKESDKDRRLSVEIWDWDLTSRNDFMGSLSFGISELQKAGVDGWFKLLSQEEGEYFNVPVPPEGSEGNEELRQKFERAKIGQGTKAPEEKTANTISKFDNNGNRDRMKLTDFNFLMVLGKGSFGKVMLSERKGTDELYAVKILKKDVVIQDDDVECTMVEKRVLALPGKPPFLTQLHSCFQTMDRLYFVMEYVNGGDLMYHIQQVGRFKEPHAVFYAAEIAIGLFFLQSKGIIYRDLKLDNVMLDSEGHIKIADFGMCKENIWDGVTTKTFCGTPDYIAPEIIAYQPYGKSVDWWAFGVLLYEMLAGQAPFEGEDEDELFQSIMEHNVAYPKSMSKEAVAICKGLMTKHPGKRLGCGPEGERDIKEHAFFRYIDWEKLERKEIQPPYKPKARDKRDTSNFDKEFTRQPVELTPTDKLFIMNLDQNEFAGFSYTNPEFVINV

[2] = target: T1, Protein kinase C beta type; assay: Inhibition of PKCbeta in rat RBL2H3 cells assessed as inhibition of ionomycin-stimulated beta-hexosaminidase release preincubated for 15 mins followed by ionomycin stimulation and measured after 3 hrs by 4-nitropheny1-2-acetamide-2-deoxy-beta-glucopyranoside substrate based colorimetric method; assay type: cell-based, RBL-2H3
[3] = target: T1, Protein kinase C beta type; assay: Inhibition of PKCbeta in rat RBL2H3 cells assessed as inhibition of anti-DNP IgE-stimulated TNFalpha release preincubated for 15 mins followed by mouse anti-DNP IgE stimulation and measured after 3 hrs by ELISA; assay type: cell-based, RBL-2H3
[4] = target: Protein kinase C beta type (Homo sapiens, UniProt P05771); assay: Inhibition of recombinant full-length N-temrinal GST-tagged human PKC beta1 expressed in baculovirus infected Sf9 cells using TMB as substrate incubated for 4.5 hrs by colorimetric analysis

Q: Which results are given for O=C1O/C(=C(/C(=O)O)c2ccc(O)c(O)c2)C(O)=C1c1ccc(O)c(O)c1?
A: IC50 [1]: 20.1 µM; IC50 [2]: 22.2 µM; IC50 [3]: 16.8 µM; IC50 [4]: 36.2 µM; inhibition [4]: Dose-dependent effect
